From patent US20080166408A1, “Oral Dosage Form Comprising Rosiglitazone” (priority 2005, published 2008)

Assay: pH dependent solubility of Compound A
Type: physicochemical
Details: acidic conditions of the stomach (around pH 2) versus near neutral conditions of the lower intestine (around pH 7); Compound A and its salts or solvates, in particular the maleate salt

Q: For CN(CCOc1ccc(CC2SC(=O)NC2=O)cc1)c1ccccn1 (stereo not shown) [Compound A, 5-[4-[2-(N-methyl-N-(2 pyridyl)amino)ethoxy]benzyl]thiazolidine-2,4-dione], which pH dependent solubility is on record?
A: The pH dependent solubility was “more soluble in the acidic conditions of the stomach (around pH 2) than in the near neutral conditions of the lower intestine (around pH 7)”.
